Assay results: patent publication EP4001279A1, “NOVEL SPIROPYRROLIDINE DERIVED ANTIVIRAL AGENTS” (Enanta Pharmaceuticals, Inc., priority 2020, dated 2022)
pEC50: −log10 of the molar value.

Tested on: 229E human corona virus (hCoV)
Assay: 229E live virus assay (CPE, ATPlite readout in MRC-5 cells)
Assay type: cell-based, hCoV-229E
Settings: Human coronavirus 229E, MRC5, hCoV-229E live virus, MOI 0.05, ATPlite readout, run in duplicate

In the case of `CC(C)C[C@@H](C(=O)N1C[C@]2(C[C@H]1C#N)C(=O)Nc1ccccc12)N(C)C(=O)c1cc2ccccc2cn1` [Example 212], the pEC50 was over 7.00.
`CC(C)C[C@@H](C(=O)N1C[C@]2(C[C@H]1C#N)C(=O)Nc1ccccc12)N(C)C(=O)c1cnc2ccccc2c1` [Example 213] gave a pEC50 of over 7.00.
With `CC(C)C[C@@H](C(=O)N1C[C@]2(C[C@H]1C#N)C(=O)Nc1ccccc12)N(C)C(=O)c1cccc2ncccc12` [Example 214] the pEC50 was over 7.00.
In the case of `CC(C)C[C@@H](C(=O)N1C[C@]2(C[C@H]1C#N)C(=O)Nc1ccccc12)N(C)C(=O)c1cccc2cnccc12` [Example 215], the pEC50 was over 7.00.
In the case of `CC(C)C[C@@H](C(=O)N1C[C@]2(C[C@H]1C#N)C(=O)Nc1ccccc12)N(C)C(=O)c1ccc2cnccc2c1` [Example 216], the pEC50 was over 7.00.
`CC(C)C[C@@H](C(=O)N1C[C@]2(C[C@H]1C#N)C(=O)Nc1ccccc12)N(C)C(=O)c1ccc2ccncc2c1` [Example 217] was tested, and the pEC50 was over 7.00.
Work on `CC(C)C[C@@H](C(=O)N1C[C@]2(C[C@H]1C#N)C(=O)Nc1ccccc12)N(C)C(=O)c1ccc2cccnc2c1` [Example 218] yielded a pEC50 of over 7.00.
Compound `CC(C)C[C@@H](C(=O)N1C[C@]2(C[C@H]1C#N)C(=O)Nc1ccccc12)N(C)C(=O)c1ccc2ccccc2c1` [Example 219] has a pEC50 of over 7.00.
`CC(C)C[C@@H](C(=O)N1C[C@]2(C[C@H]1C#N)C(=O)Nc1ccccc12)N(C)C(=O)c1cccc2ccccc12` [Example 220] was tested, and the pEC50 was over 7.00.
In the case of `CC(C)C[C@@H](C(=O)N1C[C@]2(C[C@H]1C#N)C(=O)Nc1ccccc12)N(C)C(=O)c1ccc(F)c2ccccc12` [Example 221], the pEC50 was over 7.00.
`CC(C)C[C@@H](C(=O)N1C[C@]2(C[C@H]1C#N)C(=O)Nc1ccccc12)N(C)C(=O)c1ccc2cc(F)ccc2c1` [Example 222] gave a pEC50 of over 7.00.
Work on `CC(C)C[C@@H](C(=O)N1C[C@]2(C[C@H]1C#N)C(=O)Nc1ccccc12)N(C)C(=O)c1ccc2cn[nH]c2c1` [Example 223] yielded a pEC50 of over 7.00.
Compound `CC(C)C[C@@H](C(=O)N1C[C@]2(C[C@H]1C#N)C(=O)Nc1ccccc12)N(C)C(=O)c1ccc2cnn(C)c2c1` [Example 224] has a pEC50 of over 7.00.
`CC(C)C[C@@H](C(=O)N1C[C@]2(C[C@H]1C#N)C(=O)Nc1ccccc12)N(C)C(=O)c1ccc2nc(N)sc2c1` [Example 225] was tested, and the pEC50 was 6.00 to 7.00.
With `CC(C)C[C@@H](C(=O)N1C[C@]2(C[C@H]1C#N)C(=O)Nc1ccccc12)N(C)C(=O)Cc1ccccc1` [Example 226] the pEC50 was over 7.00.
`CC(C)C[C@@H](C(=O)N1C[C@]2(C[C@H]1C#N)C(=O)Nc1ccccc12)N(C)C(=O)CCc1ccccc1` [Example 227] showed a pEC50 of over 7.00.
In the case of `CC(C)C[C@@H](C(=O)N1C[C@]2(C[C@H]1C#N)C(=O)Nc1ccccc12)N(C)C(=O)/C=C/c1ccccc1` [Example 228], the pEC50 was over 7.00.
`CC(C)C[C@@H](C(=O)N1C[C@]2(C[C@H]1C#N)C(=O)Nc1ccccc12)N(C)C(=O)COc1ccccc1` [Example 229] was tested, and the pEC50 was over 7.00.
For `CC(C)C[C@@H](C(=O)N1C[C@]2(C[C@H]1C#N)C(=O)Nc1ccccc12)N(C)C(=O)c1ccc2c(Br)cccc2n1` [Example 231], the pEC50 was over 7.00.
Compound `CC(C)C[C@@H](C(=O)N1C[C@]2(C[C@H]1C#N)C(=O)Nc1ccccc12)N(C)C(=O)c1ccc(-c2ccccc2)cc1` [Example 232] has a pEC50 of over 7.00.
`Cc1ccc2cc(C(=O)N(C)[C@@H](CC(C)C)C(=O)N3C[C@]4(C[C@H]3C#N)C(=O)Nc3ccccc34)ccc2n1` [Example 234] gave a pEC50 of over 7.00.
In the case of `CC(C)C[C@@H](C(=O)N1C[C@]2(C[C@H]1C#N)C(=O)Nc1ccccc12)N(C)C(=O)c1ccc2ncc(F)cc2c1` [Example 235], the pEC50 was over 7.00.
`CC(C)C[C@@H](C(=O)N1C[C@]2(C[C@H]1C#N)C(=O)Nc1ccccc12)N(C)C(=O)c1cc2ccc(Br)cc2cn1` [Example 236] gave a pEC50 of over 7.00.
Compound `CC(C)C[C@@H](C(=O)N1C[C@]2(C[C@H]1C#N)C(=O)Nc1ccccc12)N(C)C(=O)c1ccc2ncc(C(F)(F)F)cc2c1` [Example 237] has a pEC50 of over 7.00.
`Cc1cc2cc(C(=O)N(C)[C@@H](CC(C)C)C(=O)N3C[C@]4(C[C@H]3C#N)C(=O)Nc3ccccc34)cc(OC(F)(F)F)c2nc1C` [Example 238] was tested, and the pEC50 was over 7.00.
Work on `CC(C)C[C@@H](C(=O)N1C[C@]2(C[C@H]1C#N)C(=O)Nc1ccccc12)N(C)C(=O)c1cc(Cl)c2ncc(C3CC3)cc2c1` [Example 239] yielded a pEC50 of over 7.00.
Compound `CC(C)C[C@@H](C(=O)N1C[C@]2(C[C@H]1C#N)C(=O)Nc1ccccc12)N(C)C(=O)c1cc(Cl)c2ncc(C(F)(F)F)cc2c1` [Example 240] has a pEC50 of over 7.00.
Compound `CC(C)C[C@@H](C(=O)N1C[C@]2(C[C@H]1C#N)C(=O)Nc1ccccc12)N(C)C(=O)c1ccc2ccsc2c1` [Example 246] has a pEC50 of over 7.00.
`CC(C)C[C@@H](C(=O)N1C[C@]2(C[C@H]1C#N)C(=O)Nc1ccccc12)N(C)C(=O)c1cc2ccccn2n1` [Example 247] was tested, and the pEC50 was over 7.00.
With `CC(C)C[C@@H](C(=O)N1C[C@]2(C[C@H]1C#N)C(=O)Nc1ccccc12)N(C)C(=O)C#Cc1ccccc1` [Example 248] the pEC50 was over 7.00.
`COc1ccc2[nH]c(C(=O)N(C)[C@@H](CC(C)C)C(=O)N3C[C@]4(C[C@H]3C#N)C(=O)Nc3ccccc34)nc2c1` [Example 249] was tested, and the pEC50 was over 7.00.
`CC(C)C[C@@H](C(=O)N1C[C@]2(C[C@H]1C#N)C(=O)Nc1ccccc12)N(C)C(=O)c1nc2cc(F)ccc2[nH]1` [Example 250] was tested, and the pEC50 was over 7.00.
`CC(C)C[C@@H](C(=O)N1C[C@]2(C[C@H]1C#N)C(=O)Nc1ccccc12)N(C)C(=O)c1nc2cc(Cl)c(Cl)cc2[nH]1` [Example 251] was tested, and the pEC50 was over 7.00.
`Cc1cccc2[nH]c(C(=O)N(C)[C@@H](CC(C)C)C(=O)N3C[C@]4(C[C@H]3C#N)C(=O)Nc3ccccc34)nc12` [Example 252] gave a pEC50 of over 7.00.
In the case of `CC(C)C[C@@H](C(=O)N1C[C@]2(C[C@H]1C#N)C(=O)Nc1ccccc12)N(C)C(=O)c1cc2cccnc2cc1OC(F)F` [Example 253], the pEC50 was over 7.00.
For `CC(C)C[C@@H](C(=O)N1C[C@]2(C[C@H]1C#N)C(=O)Nc1ccccc12)N(C)C(=O)c1cc2ccc(=O)[nH]c2cc1OC1CC1` [Example 254], the pEC50 was over 7.00.
For `CC(C)C[C@@H](C(=O)N1C[C@]2(C[C@H]1C#N)C(=O)Nc1ccccc12)N(C)C(=O)c1cc(Cl)c2[nH]c(C3CC3)nc2c1` [Example 256], the pEC50 was over 7.00.
Work on `CC(C)C[C@@H](C(=O)N1C[C@]2(C[C@H]1C#N)C(=O)Nc1ccccc12)N(C)C(=O)c1ccc2nc(-c3ccccc3)ccc2c1` [Example 257] yielded a pEC50 of over 7.00.
With `COc1cc(C(=O)N(C)[C@@H](CC(C)C)C(=O)N2C[C@]3(C[C@H]2C#N)C(=O)Nc2ccccc23)nc2ccccc12` [Example 258] the pEC50 was over 7.00.
`Cc1cc(C)c2ccc(C(=O)N(C)[C@@H](CC(C)C)C(=O)N3C[C@]4(C[C@H]3C#N)C(=O)Nc3ccccc34)nc2c1O` [Example 259] was tested, and the pEC50 was over 7.00.
For `CC(C)C[C@@H](C(=O)N1C[C@]2(C[C@H]1C#N)C(=O)Nc1ccccc12)N(C)C(=O)c1cnc2ccccc2c1O` [Example 260], the pEC50 was over 7.00.
In the case of `CC(C)C[C@@H](C(=O)N1C[C@]2(C[C@H]1C#N)C(=O)Nc1ccccc12)N(C)C(=O)c1ccccc1-c1ccccc1` [Example 261], the pEC50 was 6.00 to 7.00.
In the case of `CC(C)C[C@@H](C(=O)N1C[C@]2(C[C@H]1C#N)C(=O)Nc1ccccc12)N(C)C(=O)c1cc(-c2ccccc2)ccc1Cl` [Example 262], the pEC50 was 6.00 to 7.00.
Compound `CC(C)C[C@@H](C(=O)N1C[C@]2(C[C@H]1C#N)C(=O)Nc1ccccc12)N(C)C(=O)c1cccc(-c2ccc(C(F)(F)F)cc2)c1` [Example 263] has a pEC50 of over 7.00.
Compound `CC(C)C[C@@H](C(=O)N1C[C@]2(C[C@H]1C#N)C(=O)Nc1ccccc12)N(C)C(=O)c1cccc(-c2ccccc2F)c1` [Example 264] has a pEC50 of over 7.00.
In the case of `CC(C)C[C@@H](C(=O)N1C[C@]2(C[C@H]1C#N)C(=O)Nc1ccccc12)N(C)C(=O)c1cccc(-c2ccc(C#N)cc2)c1` [Example 265], the pEC50 was 6.00 to 7.00.
`CC(C)C[C@@H](C(=O)N1C[C@]2(C[C@H]1C#N)C(=O)Nc1ccccc12)N(C)C(=O)c1cccc(-c2cccc(Cl)c2)c1` [Example 266] was tested, and the pEC50 was over 7.00.
Work on `CC(C)C[C@@H](C(=O)N1C[C@]2(C[C@H]1C#N)C(=O)Nc1ccccc12)N(C)C(=O)c1cn(-c2ccccn2)nn1` [Example 267] yielded a pEC50 of over 7.00.
`CC(C)C[C@@H](C(=O)N1C[C@]2(C[C@H]1C#N)C(=O)Nc1ccccc12)N(C)C(=O)c1cnc2c(C(F)(F)F)cccc2c1` [Example 268] showed a pEC50 of over 7.00.
Work on `CC(C)C[C@@H](C(=O)N1C[C@]2(C[C@H]1C#N)C(=O)Nc1ccccc12)N(C)C(=O)c1nc2c(F)cc(F)cc2[nH]1` [Example 269] yielded a pEC50 of over 7.00.
Compound `CC(C)C[C@@H](C(=O)N1C[C@]2(C[C@H]1C#N)C(=O)Nc1ccccc12)N(C)C(=O)c1nc2c(F)cc(F)c(F)c2[nH]1` [Example 270] has a pEC50 of over 7.00.
In the case of `CC(C)C[C@@H](C(=O)N1C[C@]2(C[C@H]1C#N)C(=O)Nc1ccccc12)N(C)C(=O)c1ccc2c(Cl)ccnc2c1` [Example 271], the pEC50 was over 7.00.
Work on `CC(C)C[C@@H](C(=O)N1C[C@]2(C[C@H]1C#N)C(=O)Nc1ccccc12)N(C)C(=O)c1ccc(F)c(-c2ccccc2)c1` [Example 272] yielded a pEC50 of over 7.00.
Work on `CC(C)C[C@@H](C(=O)N1C[C@]2(C[C@H]1C#N)C(=O)Nc1ccccc12)N(C)C(=O)c1nc2c(F)c(F)c(F)cc2[nH]1` [Example 273] yielded a pEC50 of over 7.00.
`CC(C)C[C@@H](C(=O)N1C[C@]2(C[C@H]1C#N)C(=O)Nc1ccccc12)N(C)C(=O)c1ccc2nccc(Br)c2c1` [Example 274] was tested, and the pEC50 was over 7.00.
Compound `CC(C)C[C@@H](C(=O)N1C[C@]2(C[C@H]1C#N)C(=O)Nc1ccccc12)N(C)C(=O)c1cc2cccnc2cc1F` [Example 275] has a pEC50 of over 7.00.
With `CC(C)C[C@@H](C(=O)N1C[C@]2(C[C@H]1C#N)C(=O)Nc1ccccc12)N(C)C(=O)c1ccc2c(=O)[nH]ccc2c1` [Example 276] the pEC50 was over 7.00.
`CC(C)C[C@@H](C(=O)N1C[C@]2(C[C@H]1C#N)C(=O)Nc1ccccc12)N(C)C(=O)c1ccc(-c2ccccc2)cc1` [Example 277] showed a pEC50 of over 7.00.
With `CC(C)C[C@@H](C(=O)N1C[C@]2(C[C@H]1C#N)C(=O)Nc1ccccc12)N(C)C(=O)c1cccc(-c2ccccc2C#N)c1` [Example 278] the pEC50 was over 7.00.
`CC(C)C[C@@H](C(=O)N1C[C@]2(C[C@H]1C#N)C(=O)Nc1ccccc12)N(C)C(=O)c1cccc(-c2cccc(C#N)c2)c1` [Example 279] gave a pEC50 of over 7.00.
